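Dose response: 5 concentrations. Exposure: 48 h. Format: 96-well plates. Endpoint: linear interpolation; highest concentration if not reached. At the GI50, growth is halved.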 Active and inactive are the calls of the source. Cut-off read from the data, not from the text of the source: active = GI50 up to about 1.1 µM and inactive = higher. A value given as a limit tells only on which side of the number the result lay.

Among the test systems are SK-MEL-28; HCT-15; Malme-3M; SF-268; RPMI-8226; TK-10; HT-29; M14; SW-620; NCI-H23; UO-31; HOP-92; BT-549; OVCAR-8; U-251; OVCAR-3; SF-295; UACC-257; HCT-116; NCI-H460.
Common to all, as to experiment: NCI tumour cell line growth inhibition, 48 h

For `Nc1ccc(-c2nc3ccc(F)cc3s2)cc1Cl`, the GI50 is > 100 µM (inactive) in the experiment with SK-MEL-28; > 100 µM with HCT-15; > 100 µM (inactive) in the experiment with Malme-3M; 35.3 µM (inactive) in the experiment on SF-268; > 100 µM (inactive) in the experiment on RPMI-8226; < 0.01 µM (active) with TK-10. The GI50 with HT-29 is 52.7 µM (inactive); in the experiment on M14, > 100 µM (inactive); in the experiment with SW-620, > 100 µM (inactive); with NCI-H23 it was > 82 µM (inactive); with UO-31, > 100 µM (inactive); with HOP-92, 24.9 µM (inactive). Further, the GI50 with BT-549 was > 70.6 µM (inactive); in the experiment with OVCAR-8, > 65.5 µM (inactive); in the experiment on U-251, > 65.5 µM (inactive); with OVCAR-3, 0.126 µM (active); with SF-295, > 47.1 µM (inactive); in the experiment on UACC-257 it was > 100 µM (inactive).
Take `OC1[C@@H]2[C@@H](O)[C@H](O)[C@@H](O)N2C[C@@H]1O` (stereo partly specified): the GI50 in the experiment on SK-MEL-28 is > 100 µM (inactive); with HCT-15, > 100 µM; in the experiment with Malme-3M, > 100 µM (inactive); with SF-268, > 100 µM (inactive); in the experiment with TK-10 it was > 100 µM (inactive); in the experiment on HCT-116 it was > 100 µM (inactive). Besides, the GI50 in the experiment on HT-29, with M14, in the experiment with SW-620, in the experiment on NCI-H23, in the experiment on UO-31 and in the experiment with NCI-H460 was > 100 µM (inactive) in each case. Moreover, the GI50 with HOP-92, in the experiment with BT-549, in the experiment on OVCAR-8, with U-251, with OVCAR-3 and with SF-295 was > 100 µM (inactive) each time. For the same molecule, the GI50 with UACC-257 is > 100 µM (inactive).
In the case of `COC(=O)C(=O)c1cc2ccccc2n1S(=O)(=O)c1ccccc1`, the GI50 with SK-MEL-28 is > 100 µM (inactive); in the experiment on HCT-15, > 100 µM; in the experiment with Malme-3M, > 100 µM (inactive); with SF-268, > 100 µM (inactive); in the experiment on TK-10, > 100 µM (inactive); in the experiment with HCT-116 it was > 100 µM (inactive). Besides, the GI50 in the experiment with HT-29, in the experiment on M14, in the experiment on SW-620, with NCI-H23, in the experiment on UO-31 and in the experiment with NCI-H460 was > 100 µM (inactive) each time. Moreover, the GI50 with HOP-92, in the experiment with BT-549, in the experiment with OVCAR-8, in the experiment on U-251, in the experiment on OVCAR-3 and in the experiment on SF-295 was > 100 µM (inactive) each time. Also, the GI50 in the experiment with UACC-257 was > 100 µM (inactive).
For the molecule `N=c1c2c(=S)n(-c3ccccc3)c(=S)n(-c3ccccc3)c2nc(SCCCN2CCCCC2)n1-c1ccccc1`, the GI50 is 2.11 µM (inactive) in the experiment with SK-MEL-28; 1.55 µM in the experiment with HCT-15; 1.73 µM (inactive) with Malme-3M; 1.99 µM (inactive) in the experiment with SF-268; 0.439 µM (active) in the experiment with RPMI-8226; 1.71 µM (inactive) with TK-10. Further, the GI50 in the experiment on HCT-116 is 1.73 µM (inactive); in the experiment with HT-29, 2.09 µM (inactive); in the experiment with M14, 1.69 µM (inactive); with SW-620 it was 2.11 µM (inactive); with NCI-H23, 1.98 µM (inactive); in the experiment with NCI-H460 it was 1.93 µM (inactive). Also, the GI50 was 1.78 µM (inactive) with HOP-92; 1.75 µM (inactive) in the experiment on BT-549; 1.85 µM (inactive) with OVCAR-8; 1.74 µM (inactive) in the experiment with U-251; 1.65 µM (inactive) with OVCAR-3; 4.91 µM (inactive) in the experiment with SF-295. The GI50 in the experiment with UACC-257 is 1.75 µM (inactive).
`CSC1=N/C(=C\c2ccc(C)cc2)C(=O)N1`: the GI50 in the experiment on SK-MEL-28 was > 100 µM (inactive); with HCT-15 it was > 100 µM; in the experiment on Malme-3M it was > 100 µM (inactive); with SF-268 it was 59.6 µM (inactive); in the experiment on RPMI-8226 it was > 100 µM (inactive); in the experiment with TK-10, > 100 µM (inactive). Moreover, the GI50 was 40.6 µM (inactive) with HCT-116; > 100 µM (inactive) with HT-29; > 100 µM (inactive) with M14; > 100 µM (inactive) with SW-620; 51.8 µM (inactive) in the experiment on NCI-H23; 47.8 µM (inactive) in the experiment on UO-31. Also, the GI50 with HOP-92 is 50.9 µM (inactive); with BT-549 it was 37.8 µM (inactive); in the experiment with OVCAR-8, 95.3 µM (inactive); in the experiment with U-251, 65.3 µM (inactive); in the experiment on OVCAR-3, > 100 µM (inactive); in the experiment with SF-295, 65 µM (inactive). Besides, in the experiment with UACC-257, the GI50 was > 100 µM (inactive).
Take `N#Cc1c(-c2cccc(Br)c2)cc(-c2ccc(Cl)cc2)nc1N`: the GI50 in the experiment on HCT-15 is 14.1 µM; with Malme-3M it was 23.7 µM (inactive); with SF-268, 24.8 µM (inactive); in the experiment on RPMI-8226 it was 17 µM (inactive); in the experiment with TK-10, 18.7 µM (inactive); in the experiment on HCT-116, 16.1 µM (inactive). The GI50 in the experiment on HT-29 was 18.7 µM (inactive); in the experiment on M14, 20.7 µM (inactive); with SW-620 it was 18.2 µM (inactive); in the experiment on NCI-H23, 25 µM (inactive); in the experiment on UO-31, 19 µM (inactive); in the experiment with NCI-H460, 21.2 µM (inactive). Moreover, the GI50 in the experiment with HOP-92 is 11.2 µM (inactive); with BT-549 it was 33 µM (inactive); in the experiment on OVCAR-8, 32 µM (inactive); in the experiment on U-251, 16.4 µM (inactive); in the experiment on OVCAR-3 it was 25.4 µM (inactive); with SF-295, 16.6 µM (inactive). The GI50 in the experiment with UACC-257 is 17.3 µM (inactive).
For the molecule `CC1CC[C@@H](C(C)C)[C@H](Oc2nnc(C3OC(CO)C(O)C3O)o2)C1` (stereo partly specified), the GI50 is > 100 µM in the experiment on HCT-15; > 100 µM (inactive) in the experiment with Malme-3M; > 100 µM (inactive) in the experiment on SF-268; > 100 µM (inactive) in the experiment with RPMI-8226; > 100 µM (inactive) with TK-10; > 100 µM (inactive) with HCT-116. In addition, the GI50 in the experiment on HT-29, with SW-620, in the experiment with NCI-H23, in the experiment with UO-31, with NCI-H460 and in the experiment with HOP-92 was > 100 µM (inactive) each time. For the same molecule, the GI50 in the experiment on BT-549, with OVCAR-8, in the experiment with U-251, in the experiment on OVCAR-3, in the experiment on SF-295 and in the experiment on UACC-257 was > 100 µM (inactive) in each case.
`O=[N+]([O-])c1ccc(-n2nc3ccc4c(no[n+]4[O-])c3n2)cc1`: the GI50 in the experiment on SK-MEL-28 was > 100 µM (inactive); with HCT-15, > 100 µM; in the experiment on Malme-3M, > 100 µM (inactive); in the experiment on SF-268 it was > 100 µM (inactive); in the experiment with TK-10, > 100 µM (inactive); with HCT-116 it was > 100 µM (inactive). In addition, the GI50 in the experiment on HT-29 is > 100 µM (inactive); in the experiment with M14, > 100 µM (inactive); in the experiment on SW-620, > 100 µM (inactive); in the experiment on NCI-H23, > 100 µM (inactive); with UO-31, 15.1 µM (inactive); in the experiment with NCI-H460 it was 33.2 µM (inactive). The GI50 was 5.82 µM (inactive) with HOP-92; > 100 µM (inactive) in the experiment with BT-549; > 100 µM (inactive) in the experiment on OVCAR-8; > 100 µM (inactive) in the experiment on U-251; > 100 µM (inactive) with OVCAR-3; > 100 µM (inactive) in the experiment with SF-295. Besides, in the experiment with UACC-257, the GI50 was > 100 µM (inactive).
As for `Cc1ccc2c(c1)Sc1ccc(/N=N/N(C)C)cc1N2C`, the GI50 in the experiment with SK-MEL-28 is > 100 µM (inactive); with HCT-15 it was > 100 µM; in the experiment with Malme-3M it was > 100 µM (inactive); in the experiment with SF-268, > 100 µM (inactive); in the experiment on RPMI-8226, 59.4 µM (inactive); in the experiment on TK-10, > 100 µM (inactive). Moreover, the GI50 with HCT-116, in the experiment on HT-29, in the experiment on M14, in the experiment with SW-620, in the experiment on NCI-H23 and in the experiment on UO-31 was > 100 µM (inactive) in each case. The GI50 in the experiment on NCI-H460 is 54.7 µM (inactive); with HOP-92, 48.5 µM (inactive); in the experiment on BT-549, 71 µM (inactive); in the experiment with OVCAR-8, > 100 µM (inactive); with U-251, > 100 µM (inactive); in the experiment on OVCAR-3 it was 53.2 µM (inactive). The GI50 in the experiment on SF-295 is > 100 µM (inactive).
With `O=C1CSC(c2cccc(Oc3ccccc3)c2)N1c1cc(Cl)ccc1Cl` (stereo unspecified), the GI50 is 29.5 µM (inactive) with SK-MEL-28; 23.8 µM in the experiment with HCT-15; 27.5 µM (inactive) with Malme-3M; 19.7 µM (inactive) with SF-268; 25.5 µM (inactive) in the experiment on TK-10; 17.3 µM (inactive) in the experiment with HCT-116. For the same molecule, the GI50 in the experiment with HT-29 is 22.4 µM (inactive); in the experiment with M14, 22.2 µM (inactive); in the experiment with SW-620, 22.3 µM (inactive); in the experiment on NCI-H23, 31.9 µM (inactive); with UO-31, 23.3 µM (inactive); in the experiment with NCI-H460, 20.1 µM (inactive). The GI50 is 16.4 µM (inactive) with HOP-92; 19.1 µM (inactive) in the experiment on BT-549; 23.7 µM (inactive) with OVCAR-8; 18.4 µM (inactive) with U-251; 22.1 µM (inactive) with OVCAR-3; 23 µM (inactive) in the experiment on SF-295. For the same molecule, in the experiment on UACC-257, the GI50 is 22.7 µM (inactive).
In the case of `COc1ccc(Oc2nc3ccc(C(F)(F)F)cc3nc2-c2ccccc2)cc1`, the GI50 in the experiment with SK-MEL-28 was > 100 µM (inactive); in the experiment on HCT-15, > 100 µM; in the experiment on Malme-3M, > 100 µM (inactive); in the experiment with SF-268, > 100 µM (inactive); in the experiment with RPMI-8226, 7.23 µM (inactive); in the experiment with TK-10 it was > 100 µM (inactive). The GI50 in the experiment with HCT-116 was > 100 µM (inactive); in the experiment with HT-29, 54.3 µM (inactive); with SW-620, > 100 µM (inactive); in the experiment on NCI-H23, 1.13 µM (inactive); with UO-31, 1.57 µM (inactive); with NCI-H460 it was > 100 µM (inactive). Also, the GI50 is 49.9 µM (inactive) with HOP-92; 0.361 µM (active) in the experiment on BT-549; > 100 µM (inactive) with U-251; > 100 µM (inactive) in the experiment on OVCAR-3; > 100 µM (inactive) in the experiment with SF-295; > 100 µM (inactive) in the experiment with UACC-257.
